{
  "source": "patent US9851354B2",
  "about": "“Methods of treating fragile X syndrome and related disorders” (Alcobra Ltd., priority 2013, dated 2017)",
  "format_in_all_cases": "in vivo, mouse",
  "key": {"[1]": {"system": "Fmr1 knockout (KO) or Wild Type (WT) mice", "experiment": "Contextual fear conditioning (freezing)", "description": "(§1) Fmr1 knockout mice (KO2) mice (The Dutch-Belgium Fragile X Consortium, 1994), initially obtained from the Jackson Laboratory, and wild type (WT) littermates were generated on a C57BL/6J background and repeatedly backcrossed onto a C57BL/6J background for more than eight generations. The Fmr1 knockout mice were housed in groups of the same genotype in a temperature and humidity controlled room with a 12-h light-dark cycle (lights on from 7 am to 7 pm; testing was conducted during light phase). Room temperature and humidity were recorded continuously in the holding room while food and water were available ad libitum. Testing was conducted on healthy Fmr1 knockout mice and their wild type littermates (N=10 mice per treatment group) at 2 or 6 months of age during the behavioral experiments. Mice were housed in commercial plastic cages and experiments were conducted in line with the requirements of the UK Animals (Scientific Procedures) Act, 1986. All experiments were conducted with experimenters blind to genotype and drug treatment. Animals were allowed a minimum acclimatization period of one week prior to performing any experiment. No prophylactic or therapeutic treatment was administered during the acclimatization period.\n(§2) In all cases, saline was used as a vehicle (control).\nIn the fear conditioning experiment, mice were placed into a novel environment (dark chamber) and received pairings of a cue and electric footshock (0.2 mA for 1 sec (Study 1) or 0.7 mA for 0.5 sec (Study 2)). […] Freezing time was defined as the time that the mice spent in immobile behavior, except for respiration. The data was expressed as the percentage of the test period. 24 hours after a training session, mice were tested for 5 min in the training chamber with no shock presentation and observed for freezing behavior.\n(§3) Multivariate analysis of variance was employed to assess group differences across data. Repeated measures ANOVA were performed for behavioral data. Statistically significant effects in each ANOVA were followed with post hoc comparisons, using the Newman-Keuls test (Study 1) or the Tukey test (Study 2). A p value of less than 0.05 was considered significant."}, "[2]": {"system": "Fmr1 knockout (KO) or Wild Type (WT) mice", "experiment": "Social recognition memory (Trial 2, social memory ratio)", "details": "for social memory, duration of sniffing: 2 months old, Study 2; for duration of sniffing, Trial 2: 150 mg/kg ip 7 days", "description": "as §1, §2\nMice were placed in a test arena/cage of the same order of magnitude in size as the adult's home cage (40×23×12 cm cage, with a Perspex lid to facilitate viewing the mice) with fresh wood chippings on the floor. A background mouse odor was created by putting in some non-experimental mice into the apparatus prior to testing. Mice were transferred to the experimental room 10-15 min prior to testing. A test subject and a juvenile were placed simultaneously into the test cage. The total duration and number of bouts of social investigation, defined as sniffing and close following (<2 cm from the tail) of the stimulus juvenile by the tested mouse, was assessed for 3 min. 30 min later, the test was repeated using the same stimulus juvenile. Data parameters collected were the total duration and total number of bouts of sniffing for the acquisition and recognition. A social memory ratio was derived, defined as trial 2/trial 1+2. Therefore, no memory (e.g. 20/(20+20)=0.5 and memory (e.g. 10/(20+10)=<0.5.\nas §3\nSocial memory ratio was defined as the duration of sniffing bouts: trial 2/trial 1+2. Therefore, an example of no memory was (e.g. 20/(20+20)=0.5, while an example of memory was (e.g. 10/(20+10)=<0.5."}, "[3]": {"system": "Fmr1 knockout (KO) or Wild Type (WT) mice", "experiment": "Y-maze spontaneous alternation", "details": "2 months old, 150 mg/kg once daily 7 days, Study 1", "description": "as §1, §2\nTwo tasks were implemented. The first was an unlearned assessment of spontaneous alternation between arm entries. […]"}, "[4]": {"system": "Fmr1 knockout (KO) or Wild Type (WT) mice", "experiment": "Y-maze water maze left right discrimination", "details": "2 months old, 150 mg/kg once daily 7 days, Study 1", "description": "as §1, §2\nA clear Perspex Y-maze was filled with 2 cm of water at 20° C. […]"}, "ERK": {"system": "ERK", "experiment": "Brain phosphorylation of ERK (western blot)", "description": "as §2\nThe Ras-Mek-ERK and PI3K-Akt-mToR signaling pathways are involved in mediating activity dependent alterations in gene transcription underlying changes in synaptic plasticity (Klann and Dever, 2004). Phosphorylated ERK and Akt protein expression was measured by western blot analysis as previously described by Lopez Verrilli (Lopez Verrilli et al., 2009). The antibodies employed were anti-phosphospecific antibodies against Akt (1/1000) and kinase (ERK) 1/2 (1/2000) (Cell Signaling Technology, Danvers, Mass., USA). The antibody against phospho-ERK detects phosphorylation at phospho-ERK 1/2 (Thr202/Tyr204) whereas the antibody against phospho-Akt detects phosphorylation at phospho-Akt (Thr308). Total Akt and ERK 1/2 protein content and phosphorylated ERK and Akt were evaluated by blotting membranes with antiphospho-Akt (1/1000) and antiphospho-ERK antibodies (1/2000) (Cell Signaling Technology, Danvers, Mass., USA). Akt or ERK phosphorylation was normalized to protein content in the same sample and expressed as % of change with respect to basal conditions, considering basal levels as 100%. Protein loading was evaluated by stripping and re-blotting membranes with j-actin antibody (1/1000) (Sigma-Aldrich, St. Louis, Mo., USA). Phosphorylated ERK and Akt protein expression in blood lymphocytes was measured by flow cytometry. For lymphocyte biomarker determinations, a FACStar plus (Becton Dickinson) was used with the excitation laser tuned at 488 nm and green fluorescence from FITC (GST) was collected through a 515-545 nm bandpass filter. The mean FITC fluorescence Intensity was calculated in relation to the fluorescence of reference cells. The mean cellular fluorescence intensity (MFI) is directly proportional to the mean number of Ab molecules bound per cell."}, "[5]": {"details": "Fmr1 KO mice, 6 months old, 150 mg/kg ip once daily 7 days"}, "[6]": {"details": "Fmr1 KO mice, 2 months old, 150 mg/kg ip 7 days, Study 2"}},
  "note": "“Also recorded” adds a separate entry of the source.",
  "data": [
    {"smiles": "Cc1ncc(CO)c(CO)c1O.O=C1CC[C@@H](C(=O)O)N1", "note": "[metadoxine, pyridoxol L,2-pyrrolidon-5 carboxylate]", "values": [
      {"measurement": "contextual fear conditioning, freezing (learning deficit)", "setting": "[1]; Fmr1 KO mice aged six months, 150 mg/kg ip once daily 7 days, Study 2", "result": "complete reversal"},
      {"measurement": "contextual fear conditioning, freezing (learning deficit)", "setting": "[1]; Fmr1 KO mice, 2 months old, 100 mg/kg ip once daily 7 days, Study 1", "result": "partial reversal"},
      {"measurement": "contextual fear conditioning, freezing (learning deficit)", "setting": "[1]; Fmr1 KO mice, 2 months old, 150 mg/kg ip once daily 7 days, Study 1, 150 mg/kg", "result": "reversed the learning deficit effect in Fmr1 knockout mice, this reversal being partial; also recorded: fully rescued"},
      {"measurement": "contextual fear conditioning, freezing behavior", "setting": "[1]; Fmr1 KO mice, 2 months old, 150 mg/kg ip once daily 7 days, Study 2", "result": "the reversal was complete"},
      {"measurement": "contextual fear conditioning, freezing behavior", "setting": "[1]; Fmr1 KO mice, 2 months old, 150 mg/kg oral once daily 7 days, Study 2", "result": "the reversal was complete"},
      {"measurement": "contextual fear conditioning, freezing (learning deficit)", "setting": "[1]; Fmr1 KO mice, 2 months old, 200 mg/kg ip once daily 7 days, Study 1, 200 mg/kg", "result": "completely reversed; also recorded: fully rescued"},
      {"measurement": "contextual fear conditioning, freezing behavior", "setting": "[1]; Fmr1 KO mice, 2 months old, 300 mg/kg oral once daily 7 days, Study 2", "result": "the reversal was complete"},
      {"measurement": "contextual fear conditioning, freezing behavior", "setting": "[1]; WT mice, 2 months old, 150 mg/kg ip or 150 and 300 mg/kg oral, 7 days, Study 2", "result": "No effects were seen"},
      {"measurement": "contextual fear conditioning, freezing", "setting": "[1]; WT mice, 2 months old, 100, 150 or 200 mg/kg ip once daily 7 days, Study 1", "result": "no effect on WT mice"},
      {"measurement": "social memory, duration of sniffing", "setting": "[2]; Fmr1 KO mice, 150 mg/kg ip once daily 7 days", "result": "reversal was complete"},
      {"measurement": "social memory, duration of sniffing", "setting": "[2]; Fmr1 KO mice, 150 mg/kg oral once daily 7 days", "result": "reversal was complete"},
      {"measurement": "social memory, duration of sniffing", "setting": "[2]; Fmr1 KO mice, 300 mg/kg oral once daily 7 days", "result": "reversal was complete"},
      {"measurement": "social memory, duration of sniffing (Trial 2)", "setting": "[2]; [5]", "result": "reversal by metadoxine was complete"},
      {"measurement": "social memory, number of sniffing bouts (Trial 2)", "setting": "[2]; [5]", "result": "reversal for number of sniffing bouts was partial"},
      {"measurement": "duration of sniffing, Trial 2", "setting": "[2]; KO-M: Fmr1 KO mice, 6 months old", "result": 12.7},
      {"measurement": "social memory, duration of sniffing", "setting": "[2]; WT mice, any dose (150 mg/kg ip, 150 and 300 mg/kg oral)", "result": "without effect on WT mice"},
      {"measurement": "social memory, sniffing bouts and duration (Trial 2)", "setting": "[2]; WT mice, 6 months old, 150 mg/kg ip once daily 7 days", "result": "without effect on WT mice"},
      {"measurement": "duration of sniffing, Trial 2", "setting": "[2]; WT-M: WT mice, 6 months old", "result": 12.5},
      {"measurement": "Y-maze spontaneous alternation", "setting": "[3]", "result": "partial reversal of the deficit"},
      {"measurement": "Y-maze water maze spatial discrimination (incorrect arm entries)", "setting": "[4]", "result": "deficit was reduced"},
      {"measurement": "pERK levels in hippocampus", "setting": "ERK; [6]", "result": "complete reversal of activation of ERK"},
      {"measurement": "pERK levels in pre-frontal cortex", "setting": "ERK; [6]", "result": "effect in pre-frontal cortex was partial"},
      {"measurement": "pERK levels in striatum", "setting": "ERK; [6]", "result": "complete reversal of activation of ERK"},
      {"measurement": "whole brain levels of pERK", "setting": "ERK; [5]", "result": "increase was reversed by metadoxine treatment"},
      {"measurement": "pERK levels in hippocampus, pre-frontal cortex and striatum", "setting": "ERK; WT mice, 2 months old, 150 mg/kg ip 7 days, Study 2", "result": "without effect on WT mice"},
      {"measurement": "whole brain phosphorylation of ERK", "setting": "ERK; WT mice, 2 months old, 150 mg/kg ip once daily 7 days, Study 1", "result": "no effect on phosphorylation of ERK in WT mice"},
      {"measurement": "whole brain total ERK levels", "setting": "ERK; any mice (KO or WT), 2 months old, 150 mg/kg ip once daily 7 days, Study 1", "result": "no effect"}
    ]}
  ]
}
